{
  "source": "patent US20050181376A1",
  "about": "“Antisense modulation of microsomal triglyceride transfer protein expression” (ISIS Pharmaceuticals, Inc., priority 2001, published 2005)",
  "key": {"[1]": {"test_system": "human microsomal triglyceride transfer protein mRNA"}, "[2]": {"test_system": "human microsomal triglyceride transfer protein mRNA", "test": "Antisense inhibition of human microsomal triglyceride transfer protein mRNA levels, quantitative real-time PCR; note: test concentration or dose not given here", "conditions": "averages from two experiments"}},
  "note": "Like-named read-outs stand apart in the source and are kept apart here. Strand notation (5' to 3'): a small letter for the sugar, then the base; units joined by * are phosphorothioate-linked, units joined directly phosphodiester-linked; [ ] holds rarer units or linkages, { } end groups; capitals alone tell only the bases. e = 2'-O-(2-methoxyethyl) (MOE); [5mC] = 5-methylcytosine; d = 2'-deoxy (DNA)",
  "data": [
    {"substance": "GATGATTCAAAATGACGCTG (chemistry not given here) [ISIS 144444]", "values": [
      {"measurement": "% INHIB (inhibition of human microsomal triglyceride transfer protein mRNA levels)", "setting": "[1]", "value": "at least 30%"}
    ]},
    {"substance": "144442 (e[5mC]*eG*e[5mC]*eT*eG*dT*dG*d[5mC]*dT*d[5mC]*dT*d[5mC]*dA*dG*dA*eG*eA*eG*e[5mC]*eA; antisense) [compound 144442]", "values": [
      {"measurement": "% INHIB (inhibition of human microsomal triglyceride transfer protein mRNA levels)", "setting": "[2]", "value": 57, "unit": "%"}
    ]},
    {"substance": "CAGTGCCCAGCTAGGAGTCA (antisense e[5mC]*eA*eG*eT*eG*d[5mC]*d[5mC]*d[5mC]*dA*dG*d[5mC]*dT*dA*dG*dG*eA*eG*eT*e[5mC]*eA) [ISIS 144407]", "values": [
      {"measurement": "% INHIB (inhibition of human microsomal triglyceride transfer protein mRNA levels)", "setting": "[2]", "value": "at least 30%"}
    ]},
    {"substance": "GCTTCATCCTTGTCCATCTG (antisense eG*e[5mC]*eT*eT*e[5mC]*dA*dT*d[5mC]*d[5mC]*dT*dT*dG*dT*d[5mC]*d[5mC]*eA*eT*e[5mC]*eT*eG) [ISIS 144438]", "values": [
      {"measurement": "% INHIB (inhibition of human microsomal triglyceride transfer protein mRNA levels)", "setting": "[2]", "value": "at least 30%"}
    ]},
    {"substance": "GATTCCTCCATAGTAAGGCC (antisense eG*eA*eT*eT*e[5mC]*d[5mC]*dT*d[5mC]*d[5mC]*dA*dT*dA*dG*dT*dA*eA*eG*eG*e[5mC]*e[5mC]) [ISIS 144413]", "values": [
      {"measurement": "% INHIB (inhibition of human microsomal triglyceride transfer protein mRNA levels)", "setting": "[2]", "value": "at least 30%"}
    ]},
    {"substance": "CGCTGTGCTCTCAGAGAGCA (antisense e[5mC]*eG*e[5mC]*eT*eG*dT*dG*d[5mC]*dT*d[5mC]*dT*d[5mC]*dA*dG*dA*eG*eA*eG*e[5mC]*eA) [ISIS 144442]", "values": [
      {"measurement": "% INHIB (inhibition of human microsomal triglyceride transfer protein mRNA levels)", "setting": "[2]", "value": "at least 30%"}
    ]}
  ]
}
